From patent US10245249B2, “Pharmaceutical compositions comprising nitroxyl donors” (Cardioxyl Pharmaceuticals, Inc., priority 2013, dated 2019) come the findings set out here.

The nature of the assay: HNO production determined via N2O quantification (GC headspace analysis). The class given is physicochemical. The settings on record: PBS, 37° C. An outline of the steps:
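Compounds dissolved in argon-purged anhydrous DMF were added to argon-purged PBS in sealed vials at 37° C for the set incubation time; headspace N2O was measured by GC with micro-ECD. N2O gas and CXL-1020 served as standards, and relative N2O yield (%) was calculated per incubation time.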

Each structure is given as a SMILES string.

Regarding `Cc1ccc(S(=O)(=O)NO)o1` [Compound 1, N-Hydroxy-5-methylfuran-2-sulfonamide], the “Relative N2O Yield (90 minutes incubation)” value amounted to 52%.

Take `CS(=O)(=O)c1cccc(S(=O)(=O)NO)c1` [Compound 2, N-Hydroxy-3-methanesulfonylbenzene-1-sulfonamide]: the “Relative N2O Yield (90 minutes incubation)” value stood at 82% and the “Relative N2O Yield (360 minutes incubation)” value is listed as 94%.

Take `O=S(=O)(NO)c1ccco1` [Compound 83, N-Hydroxyfuran-2-sulfonamide]: the “Relative N2O Yield (90 minutes incubation)” value came out at 42% and the “Relative N2O Yield (360 minutes incubation)” value came out at 86%.

On to `Cc1ccc(S(=O)(=O)NO)s1` [Compound 84, N-Hydroxy-5-methylthiophene-2-sulfonamide], for which the “Relative N2O Yield (90 minutes incubation)” value was determined as 52% and the “Relative N2O Yield (360 minutes incubation)” value amounted to 67%.

In the case of `Cn1ccc(S(=O)(=O)NO)n1` [Compound 85, N-Hydroxy-1-methyl-1H-pyrazole-3-sulfonamide], the “Relative N2O Yield (90 minutes incubation)” value amounted to 33.5%.
